Where two headings read alike, the source gives them in different places.
Legend:
[1] = Resveratrol in blood and brain tissues 0.5 h after intragastric administration, UPLC-MS (Example 4); assay type: in vivo; settings: rat, oral, SD rats, 100 mg/kg resveratrol, 0.5 h after administration
Description: Treatment Group: LXN3 was made into suspension. 5 SD rats were administered the suspension at the dose of 100 mg/kg resveratrol and the volume of 20 ml/kg by intragastric administration;
Control group: Resveratrol was made into suspension. 5 SD rats were administered the suspension at the dose of 100 mg/kg resveratrol and the volume of 20 ml/kg by intragastric administration;
The rats were derw blood 0.5 h after administration and then sacrificed under anaesthesia. Brain tissues were taken to prepare brain homogenates. The content of resveratrol in the blood and brain tissues were detected by UPLC-MS.

MCAO forebrain ischemia = MCAO forebrain ischemia rats, improvement rate of cerebral infarction area (Example 4); assay type: in vivo; settings: gavage, 7 days after administration
Description: In addition, 30 rats of MCAO forebrain ischemia were prepared, and they were administered solvent saline, 100 mg/kg LXN3, and resveratrol by gavage at 20 ml/kg, 10 rats per group; […]

concentration at 0.5 h ([1]; brain, read-out: Resveratrol content in brain tissues): 3.12 ± 1.29 ng/g
concentration at 0.5 h ([1]; plasma, read-out: Plasma concentration of resveratrol): 5580 ± 1280 ng/mL
Structure (SMILES): Oc1ccc(C=Cc2cc(O)cc(O)c2)cc1 [Resveratrol]
Improvement rate of cerebral infarction area (MCAO forebrain ischemia): 20.1 ± 8.6%

Reference: patent US20170196834A1, “PREPARATION AND APPLICATION OF FLAVONOL AS BRAIN-TARGETING SYNERGIST” (GUANGDONG PHARMACEUTICAL UNIVERSITY, priority 2014, published 2017)
